Laboratory results taken from patent publication US20230257364A1, “PYRIDAZINONE-BASED COMPOUNDS AS AXL, C-MET, AND MER INHIBITORS AND METHODS OF USE THEREOF” (CMG Pharmaceutical Co., Ltd., priority 2022, published 2023).

Assays:
Type in all cases: biochemical
C-MET = C-MET (Homo sapiens, UniProt P08581); experiment: Enzymatic kinase assay (ADP-GLO), C-MET; conditions: 10 μM ATP, poly (Glu4, Tyr1) substrate, 60 min room temperature, luminescence; read-out: Enzymatic assay IC50 (nM) C-MET
Method: (§1) This example illustrates an enzymatic assay to determine the inhibitory activity of exemplary compounds of Formula (I) in an aspect of the invention.
All the kinase reactions were performed in 5 μL using tyrosine kinase buffer with 0.2 μg/μL poly (Glu4, Tyr1) substrate, 10 μM ATP, serial dilution of the inhibitor, and incubated at room temperature for 60 min. After the indicated incubation times, 5 μL ADP-GLO™ reagent (Promega, Madison, Wis.) was added to the reactions and the plate was incubated at room temperature for 40 min. […] All 384-well assay plates were read using a GLOMAX™ Discover Microplate Luminometer from Promega (Madison, Wis.). To plot, analyze the data and calculate all kinase reaction biochemical values, both Microsoft Excel and Prism from GraphPad 7 Software (La Jolla, Calif.) were used.

MER = molecular target: T1, MER (Homo sapiens, UniProt Q12866); experiment: Enzymatic kinase assay (ADP-GLO), MER; conditions: 10 μM ATP, poly (Glu4, Tyr1) substrate, 60 min room temperature, luminescence
T1 sequence (Q12866 21-999): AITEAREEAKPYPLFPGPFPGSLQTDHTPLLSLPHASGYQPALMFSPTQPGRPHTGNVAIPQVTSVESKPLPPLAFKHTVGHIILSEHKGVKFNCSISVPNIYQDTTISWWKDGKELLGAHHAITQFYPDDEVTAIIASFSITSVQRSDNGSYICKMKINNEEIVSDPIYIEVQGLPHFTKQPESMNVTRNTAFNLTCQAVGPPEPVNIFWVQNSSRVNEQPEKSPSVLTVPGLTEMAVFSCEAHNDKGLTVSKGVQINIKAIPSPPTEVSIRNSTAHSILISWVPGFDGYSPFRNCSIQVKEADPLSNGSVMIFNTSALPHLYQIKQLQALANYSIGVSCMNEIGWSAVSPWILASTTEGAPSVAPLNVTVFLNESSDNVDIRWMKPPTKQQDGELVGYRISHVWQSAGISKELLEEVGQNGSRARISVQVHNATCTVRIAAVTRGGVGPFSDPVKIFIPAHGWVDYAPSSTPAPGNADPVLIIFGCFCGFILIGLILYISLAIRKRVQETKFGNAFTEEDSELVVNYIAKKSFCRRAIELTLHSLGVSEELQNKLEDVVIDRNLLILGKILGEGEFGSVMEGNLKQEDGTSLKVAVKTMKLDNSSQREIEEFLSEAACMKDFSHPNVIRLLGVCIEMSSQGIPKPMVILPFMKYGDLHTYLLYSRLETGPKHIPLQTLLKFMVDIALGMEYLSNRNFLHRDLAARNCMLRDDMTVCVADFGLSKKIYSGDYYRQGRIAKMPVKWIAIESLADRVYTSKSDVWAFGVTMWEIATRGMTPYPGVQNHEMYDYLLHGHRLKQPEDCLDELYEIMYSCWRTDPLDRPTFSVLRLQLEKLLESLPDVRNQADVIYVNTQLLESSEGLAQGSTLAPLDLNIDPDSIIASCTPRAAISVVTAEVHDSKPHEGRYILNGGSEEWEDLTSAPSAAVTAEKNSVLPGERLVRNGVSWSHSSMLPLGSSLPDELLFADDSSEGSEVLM
Method: as §1
(§2) All the kinase reactions were performed in 5 μL using tyrosine kinase buffer with 0.2 μg/μL poly (Glu4, Tyr1) substrate, 10 μM ATP, serial dilution of the inhibitor, and incubated at room temperature for 60 min. After the indicated incubation times, 5 μL ADP-GLO™ reagent (Promega, Madison, Wis.) was added to the reactions and the plate was incubated at room temperature for 40 min. Then, 10 μL of kinase detection reagent was added and after an incubation time of 40 min, luminescence was recorded and IC50 values were determined (Table 1). All 384-well assay plates were read using a GLOMAX™ Discover Microplate Luminometer from Promega (Madison, Wis.). To plot, analyze the data and calculate all kinase reaction biochemical values, both Microsoft Excel and Prism from GraphPad 7 Software (La Jolla, Calif.) were used.

AXL = molecular target: T2, AXL (Homo sapiens, UniProt P30530); experiment: Enzymatic kinase assay (ADP-GLO), AXL; conditions: 10 μM ATP, poly (Glu4, Tyr1) substrate, 60 min room temperature, luminescence
T2 sequence (P30530 26-894): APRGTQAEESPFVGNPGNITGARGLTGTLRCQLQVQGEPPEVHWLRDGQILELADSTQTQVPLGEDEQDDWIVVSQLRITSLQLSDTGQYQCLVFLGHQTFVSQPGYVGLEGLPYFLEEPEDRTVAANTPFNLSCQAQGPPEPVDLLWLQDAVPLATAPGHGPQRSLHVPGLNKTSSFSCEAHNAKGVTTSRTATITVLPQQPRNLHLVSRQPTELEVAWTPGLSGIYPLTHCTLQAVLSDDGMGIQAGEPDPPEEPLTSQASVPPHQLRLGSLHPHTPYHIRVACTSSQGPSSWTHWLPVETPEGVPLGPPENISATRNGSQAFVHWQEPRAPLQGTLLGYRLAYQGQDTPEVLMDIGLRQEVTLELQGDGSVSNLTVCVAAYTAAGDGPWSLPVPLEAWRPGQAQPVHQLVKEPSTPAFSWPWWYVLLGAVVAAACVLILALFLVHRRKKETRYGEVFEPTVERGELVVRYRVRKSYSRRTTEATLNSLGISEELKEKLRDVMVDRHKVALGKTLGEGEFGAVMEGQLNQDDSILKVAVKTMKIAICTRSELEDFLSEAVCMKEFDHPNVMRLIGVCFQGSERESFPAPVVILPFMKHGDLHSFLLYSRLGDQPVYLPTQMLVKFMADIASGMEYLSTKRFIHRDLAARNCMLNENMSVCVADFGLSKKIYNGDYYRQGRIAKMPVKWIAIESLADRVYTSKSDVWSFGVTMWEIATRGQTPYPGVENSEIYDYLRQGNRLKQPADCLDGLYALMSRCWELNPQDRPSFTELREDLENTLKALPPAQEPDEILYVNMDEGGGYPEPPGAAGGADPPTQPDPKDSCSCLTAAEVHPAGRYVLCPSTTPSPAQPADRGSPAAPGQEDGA
Method: as §1, §2

C-MET, sequence (P08581 25-1390): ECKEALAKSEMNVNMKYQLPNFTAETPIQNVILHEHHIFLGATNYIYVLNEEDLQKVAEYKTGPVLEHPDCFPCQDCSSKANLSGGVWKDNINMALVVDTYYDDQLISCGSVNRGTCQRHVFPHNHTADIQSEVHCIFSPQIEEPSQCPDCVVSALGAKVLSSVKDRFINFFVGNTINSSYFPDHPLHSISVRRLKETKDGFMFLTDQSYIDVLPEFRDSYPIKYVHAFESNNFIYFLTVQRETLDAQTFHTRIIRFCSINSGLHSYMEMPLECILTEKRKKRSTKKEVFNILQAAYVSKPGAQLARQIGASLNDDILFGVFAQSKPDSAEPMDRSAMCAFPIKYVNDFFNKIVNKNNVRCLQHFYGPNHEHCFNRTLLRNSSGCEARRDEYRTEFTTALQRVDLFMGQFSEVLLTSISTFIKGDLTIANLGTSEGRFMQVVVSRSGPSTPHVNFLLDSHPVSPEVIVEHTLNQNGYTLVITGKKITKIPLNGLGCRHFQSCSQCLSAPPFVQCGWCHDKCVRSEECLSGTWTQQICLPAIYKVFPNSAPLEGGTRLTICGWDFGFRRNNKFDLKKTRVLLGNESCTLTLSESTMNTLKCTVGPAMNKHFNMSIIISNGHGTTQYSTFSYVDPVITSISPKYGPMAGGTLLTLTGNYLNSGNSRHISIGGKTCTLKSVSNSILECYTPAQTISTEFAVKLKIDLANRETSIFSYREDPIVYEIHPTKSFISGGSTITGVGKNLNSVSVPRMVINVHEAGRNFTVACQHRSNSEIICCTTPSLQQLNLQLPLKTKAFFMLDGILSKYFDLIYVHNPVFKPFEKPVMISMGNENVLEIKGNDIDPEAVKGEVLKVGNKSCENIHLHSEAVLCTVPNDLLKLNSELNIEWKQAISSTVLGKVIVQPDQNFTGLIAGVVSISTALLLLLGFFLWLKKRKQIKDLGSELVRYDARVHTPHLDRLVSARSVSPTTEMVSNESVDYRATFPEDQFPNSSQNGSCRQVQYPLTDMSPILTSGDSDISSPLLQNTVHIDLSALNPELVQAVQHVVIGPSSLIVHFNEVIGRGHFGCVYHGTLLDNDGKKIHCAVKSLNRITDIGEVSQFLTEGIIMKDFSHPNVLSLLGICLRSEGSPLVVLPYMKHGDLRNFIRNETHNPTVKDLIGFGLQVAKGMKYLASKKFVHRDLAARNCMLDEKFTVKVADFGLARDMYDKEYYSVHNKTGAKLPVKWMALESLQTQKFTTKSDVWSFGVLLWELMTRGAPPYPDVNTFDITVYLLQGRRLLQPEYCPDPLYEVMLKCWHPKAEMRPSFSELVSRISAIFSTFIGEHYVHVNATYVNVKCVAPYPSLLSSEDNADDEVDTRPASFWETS

IC50 (C-MET)	IC50 (MER)	IC50 (AXL)	SMILES
< 10 nM	< 1000 nM	< 100 nM	N#Cc1c(Oc2ccc(NC(=O)c3ccnn(-c4ccc(F)cc4)c3=O)cc2F)ccnc1N [Example 5]
< 10 nM	< 10 nM	< 10 nM	CN1CCN(CC#Cc2c(Oc3ccc(NC(=O)c4ccnn(-c5ccc(F)cc5)c4=O)cc3F)ccnc2N)CC1 [Example 29, N-(4-(2-amino-3-(3-(4-methylpiperazin-1-yl)prop-1-ynyl)pyridin-4-yloxy)-3-fluorophenyl)-2-(4-fluorophenyl)-3-oxo-2,3-dihydropyridazine-4-carboxamide]
< 10 nM	< 100 nM	< 10 nM	CC(C)(C#Cc1c(Oc2ccc(NC(=O)c3ccnn(-c4ccc(F)cc4)c3=O)cc2F)ccnc1N)N1CCOCC1 [Example 28, N-(4-(2-amino-3-(3-methyl-3-morpholinobut-1-ynl)pyridin-4-yloxy)-3-fluorophenyl)-2-(4-fluorophenyl)-3-oxo-2,3-dihydropyridazine-4-carboxamide]
< 1000 nM	< 1000 nM	< 1000 nM	Nc1nccc(Oc2ccc(NC(=O)c3ccnn(-c4ccc(F)cc4)c3=O)cc2F)c1C#CCN1CCOCC1 [Example 3, N-(4-(2-amino-3-(morpholinoprop-1-ynyl)pyridine-4-yloxy)-3-fluorophenyl)-2-(4-fluorophenyl)-3-oxo-2,3-dihydropyridazine-4-carboxamide]
< 100 nM	< 100 nM	< 1000 nM	Nc1nccc(Oc2ccc(NC(=O)c3ccnn(-c4ccc(F)cc4)c3=O)cc2F)c1/C=C/C(=O)N1CCOCC1 [Example 4, (E)-N-(4-(2-amino-3-(3-morpholino-3-oxoprop-1-enyl)pyridine-4-yloxy)-3-fluorophenyl)-2-(4-fluorophenyl)-3-oxo-2,3-dihydropyridazine-4-carboxamide]
> 1000 nM	< 100 nM	< 10 nM	CCCn1cc(-c2c(Oc3ccc(NC(=O)c4ccnn(-c5ccc(F)cc5)c4=O)cc3F)ccnc2N)cn1 [Example 21, N-(4-(2-amino-3-(1-propyl-1H-pyrazol-4-yl)pyridin-4-yloxy)-3-fluorophenyl)-2-(4-fluorophenyl)-3-oxo-2,3-dihydropyridazine-4-carboxamide]
> 1000 nM	< 1000 nM	< 1000 nM	Nc1nccc(Oc2ccc(NC(=O)c3ccnn(-c4ccc(F)cc4)c3=O)cc2F)c1-c1ccc(Oc2ccccc2)cc1 [Example 20, N-(4-(2-amino-3-(4-phenoxyphenyl)pyridin-4-yloxy)-3-fluorophenyl)-2-4-(fluorophenyl)-3-oxo-2,3-dihydropyridazine-4-carboxamide]
< 100 nM	< 10 nM	< 10 nM	COCCN1CCN(CC#Cc2c(Oc3ccc(NC(=O)c4ccnn(-c5ccc(F)cc5)c4=O)cc3F)ccnc2N)CC1 [Example 24]
< 10 nM	> 1000 nM	< 10 nM	Nc1nccc(Oc2ccc(NC(=O)c3ccnn(-c4ccc(F)cc4)c3=O)cc2F)c1C#CC1CCNCC1 [Example 25, N-(4-(2-amino-3-(piperidin-4-ylethynyl)pyridine-4-yloxy)-3-fluorophenyl)-2-(4-fluorophenyl)-3-oxo-2,3-dihydropyridazine-4-carboxamide]
< 100 nM	< 100 nM	< 100 nM	COCCON(C)C(=O)C#Cc1c(Oc2ccc(NC(=O)c3ccnn(-c4ccc(F)cc4)c3=O)cc2F)ccnc1N [Example 12, N-(4-(2-amino-3-(3-((2-methoxyethoxy)(methyl)amino)-3-oxoprop-1-ynyl)pyridin-4-yloxy)-3-fluorophenyl)-2-(4-fluorophenyl)-3-oxo-2,3-dihydropyridazine-4-carboxamide]
< 10 nM	> 1000 nM	< 10 nM	CN1CCC(C#Cc2c(Oc3ccc(NC(=O)c4ccnn(-c5ccc(F)cc5)c4=O)cc3F)ccnc2N)CC1 [Example 26, N-(4-(2-amino-3-((1-methylpiperidin-4-yl)ethynyl)pyridin-4-yloxy)-3-fluorophenyl)-2-(4-fluorophenyl)-3-oxo-2,3-dihydropyridazine-4-carboxamide]
< 100 nM	< 100 nM	< 10 nM	COCCN1CCN(C(C)(C)C#Cc2c(Oc3ccc(NC(=O)c4ccnn(-c5ccc(F)cc5)c4=O)cc3F)ccnc2N)CC1 [Example 23, N-(4-(2-amino-3-(3-(4-(2-methoxyethyl)piperazin-1-yl)-3-methylbut-1-ynyl)pyridine-4-yloxy)-3-fluorophenyl)-2-(4-fluorophenyl)-3-oxo-2,3-dihydropyridazine-4-carboxamide]
< 100 nM	< 100 nM	< 10 nM	Nc1nccc(Oc2ccc(NC(=O)c3ccnn(-c4ccc(F)cc4)c3=O)cc2F)c1C#CC(=O)N1CCC(O)CC1 [Example 9, N-(4-(2-amino-3-(3-(4-hydroxypiperidin-1-yl)-3-oxoprop-1-ynyl)pyridin-4-yloxy)-3-fluorophenyl)-2-(4-fluorophenyl)-3-oxo-2,3-dihydropyridazine-4-carboxamide]
< 1000 nM	< 1000 nM	< 1000 nM	Nc1nccc(Oc2ccc(NC(=O)c3ccnn(-c4ccc(F)cc4)c3=O)cc2F)c1Cl [Example 1, N-(4-(2-amino-3-chloropyridin-4-yloxy)-3-fluorophenyl)-2-(4-fluorophenyl)-3-oxo-2,3-dihydropyridazine-4-carboxamide]
< 1000 nM	< 1000 nM	< 1000 nM	Nc1nccc(Oc2ccc(NC(=O)c3ccnn(-c4ccc(F)cc4)c3=O)cc2F)c1/C=C/C(=O)N1CCNCC1 [Example 7, (E)-N-(4-(2-amino-3-(3-oxo-3-(piperazin-1-yl)prop-1-enyl)pyridin-4-yloxy)-3-fluorophenyl)-2-(4-fluorophenyl)-3-oxo-2,3-dihydropyridazine-4-carboxamide]
